Values after ≈ are worked out from the molar mass of the structure shown. Where two headings read alike, the source gives them in different places. Where a SMILES comes first, the peptide text is derived from it. Bridges are numbered along the chain shown (N, C = ends). [ ]: non-standard residue; d: D form. The star is where a group is joined. ξ: configuration not given here. Decanoyl(3ξ-OH) = CCCCCCCC(O)CC(=O)*; Dab = NCC[CH](N)C(=O)O; Dhb = C/C=C(\N)C(=O)O
Experiments:
Mycobacterium smegmatis = type: cell-based
[1] = tested on: human embryonic kidney cells (HEK 293); test: Toxicity to mammalian cells, percent cell death (Nucleocounter); conditions: 4 μg/mL and 8 μg/mL, 6, 24, and 48 h
Method: (§1) Toxicity of the two compounds to mammalian cells was assayed in cell culture using mouse enteroendocrine cells (STC-1), human embryonic kidney cells (HEK 293; ATCC CRL-1573), and human lung fibroblasts (LL47; ATCC CCL-135). […] The human embryonic kidney cells and human lung fibroblasts were grown as per the American Type Culture Collection's recommendation, while the mouse enteroendocrine cells were grown as described by Vincent et al. (2001, Proc. Natl. Acad. Sci., 99:2392-2397). Media and sera were purchased from HyClone Laboratories (Logan, Utah). All cells were grown in 10% fetal bovine serum (FBS).
(§2) The number in the parenthesis represents the concentration of each compound in μg/mL. The percent cell death was benchmarked to 100% lysis with the positive control. The number of total cells and dead cells were counted after 6, 24, and 48 h using a Nucleocounter Automated cell counting system (New Brunswick; Edison, N.J.). Briefly, cells (STC, 200,000 cells/well; HEK 293, 200,000 cells/well; and LL47, 100,000 cells/well) were incubated in the appropriate medium for 24 h prior to addition of fresh media containing the antimicrobial compounds. After addition of the antimicrobial compound, the cell cultures were incubated at 37° C. with 5% CO2 for 6, 24, and 48 h. Cells were harvested by trypsinization using 0.25% trypsin-EDTA for 2 min. The trypsin was neutralized by addition of 200 μL of serum containing fresh medium. The cells were then harvested and transferred to 1.5 mL tubes, centrifuged (3-5 min at <100×g), and resuspended in 200 μL of fresh medium. For the total cell count, 100 μL of the suspension was added to lysis buffer (Reagent A100 in the starting kit (Cat No. M1293-0020, New Brunswick Scientific) for 30 s, which was stabilized using 100 μL of Reagent B. A positive control of completely lysed cells was used along with a negative control using sterile PBS (pH 7.4). For dead cell counts, 100 μL of cell lysate was counted without the use of lysis buffer or stabilizing buffer. All cell counts were obtained using the Nucleocounter automated cell counting system. Data were reported as the percent of cell death. The toxicity testing was done in replicate using three wells per test.

[2] = tested on: human lung fibroblasts (LL47); test: as above; conditions: 4 μg/mL and 8 μg/mL, 6, 24, and 48 h
Method: as §1, §2

[3] = tested on: mouse enteroendocrine cells (STC-1); test: as above; conditions: 4 μg/mL and 8 μg/mL, 6, 24, and 48 h
Method: as §1, §2

[4] = tested on: organisms tested (gram-positive and gram-negative bacteria, Table 1)
[5] = tested on: selected human cancer cell lines;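 further: MTT dye viability readout in semi-confluent cancer cells, compound exposure 1-24 hours, MTT then 4 hours at 37 °C, compared against untreated negative control wells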
Method: Cancer cell assays can be performed using the MTT dye protocol. Viability of cells may be determined by the dye response. In the following procedure, approximately 1.5×10^4 cells per well can be added and viability may be determined with the cells in a semi-confluent state. The assay can be performed in a 96-well microtiter plate using a New Brunswick Cell Counter. After addition of the compound or compounds of the present invention, the plate may incubate for 1-24 hours. MTT may be added to each well including negative control wells untreated with the compounds of the present invention. The plate would then be incubated at 37° C. for 4 hours. The liquid contents of each well can then be removed, and isopropanol with 0.1 M HCl would then be added to each well. The plate can be sealed with parafilm to prevent evaporation of the isopropanol. The plate would then be allowed to sit for approximately 5-10 minutes in order to solubilize the precipitate. Purified water would then be added to each well.

RBC = conditions: reported by Dalla Serra et al. 1999; cited from earlier work

C/C=C(\NC(=O)C(C)NC(=O)C(C)NC(=O)C(CC(C)C)NC(=O)C(NC(=O)C(C)NC(=O)C(C)NC(=O)C(NC(=O)C1CCCN1C(=O)/C(=C/C)NC(=O)CC(O)CCCCCCC)C(C)C)C(C)C)C(=O)NC(C(=O)N/C(=C\C)C(=O)NC(C)C(=O)NC(C(=O)NC(C)C(=O)NC(C)C(=O)N/C(=C\C)C(=O)NC1C(=O)NC(CO)C(=O)NC(C)C(=O)NC(C(C)C)C(=O)NC(C)C(=O)NC(CCN)C(=O)NC(CCN)C(=O)NC(Cc2ccc(O)cc2)C(=O)OC1C)C(C)C)C(C)C (stereo not shown) [SP 25A, syringopeptin 25A] ({Decanoyl(3ξ-OH)}-[Dhb]PVAAVLAA[Dhb]V[Dhb]AVAA[Dhb]TSAVA[Dab][Dab]Y; ester 18-C; configuration not given here)
MIC (Mycobacterium smegmatis): 4 µg/mL (≈ 1.67 µM) | cytotoxicity (percent cell death) [1]: No significant (p>0.05) cytotoxicity | cytotoxicity (percent cell death) [2]: No significant (p>0.05) cytotoxicity | cytotoxicity (percent cell death) [3]: No significant (p>0.05) cytotoxicity | MIC range for the organisms tested [4]: 3 to 16 µg/mL | MICs against gram-positive bacteria [4]: ≤ 8 µg/mL | growth inhibition of gram-negative organisms tested ([4]; gram-negative organisms, except F. devorans): did not inhibit the growth | IC50 ([5]; Bone (U2OS)): 101.47 µg/mL (≈ 42.3 µM) | % cytotoxicity ([5]; Bone (U2OS), 1.00 ug/ml): −10.06% | % cytotoxicity ([5]; Bone (U2OS), 2.50 ug/ml): −3.64% | % cytotoxicity ([5]; Bone (U2OS), 5.00 ug/ml): 1.69% | % cytotoxicity ([5]; Bone (U2OS), 10.00 ug/ml): 4.93% | IC50 ([5]; Breast (MCF-7)): 30.27 µg/mL (≈ 12.6 µM) | % cytotoxicity ([5]; Breast (MCF-7), 1.00 ug/ml): −20.40% | % cytotoxicity ([5]; Breast (MCF-7), 2.50 ug/ml): −1.12% | % cytotoxicity ([5]; Breast (MCF-7), 5.00 ug/ml): 1.76% | % cytotoxicity ([5]; Breast (MCF-7), 10.00 ug/ml): 16.52% | IC50 ([5]; Breast (MDA-MB231)): 10.14 µg/mL (≈ 4.23 µM) | % cytotoxicity ([5]; Breast (MDA-MB231), 1.00 ug/ml): −12.40% | % cytotoxicity ([5]; Breast (MDA-MB231), 2.50 ug/ml): 9.23% | % cytotoxicity ([5]; Breast (MDA-MB231), 5.00 ug/ml): 21.98% | % cytotoxicity ([5]; Breast (MDA-MB231), 10.00 ug/ml): 49.30% | IC50 ([5]; Breast (MDA-MB435)): 6.25 µg/mL (≈ 2.6 µM) | % cytotoxicity ([5]; Breast (MDA-MB435), 1.00 ug/ml): 20.78% | % cytotoxicity ([5]; Breast (MDA-MB435), 2.50 ug/ml): −5.22% | % cytotoxicity ([5]; Breast (MDA-MB435), 5.00 ug/ml): 18.84% | % cytotoxicity ([5]; Breast (MDA-MB435), 10.00 ug/ml): 79.98% | IC50 ([5]; Cervical (HeLa)): 25.50 µg/mL (≈ 10.6 µM) | % cytotoxicity ([5]; Cervical (HeLa), 1.00 ug/ml): 1.68% | % cytotoxicity ([5]; Cervical (HeLa), 2.50 ug/ml): 3.50% | % cytotoxicity ([5]; Cervical (HeLa), 5.00 ug/ml): 1.08% | % cytotoxicity ([5]; Cervical (HeLa), 10.00 ug/ml): 19.61% | IC50 ([5]; Colon (HT29)): 29.72 µg/mL (≈ 12.4 µM) | % cytotoxicity ([5]; Colon (HT29), 1.00 ug/ml): 8.89% | % cytotoxicity ([5]; Colon (HT29), 2.50 ug/ml): 23.85% | % cytotoxicity ([5]; Colon (HT29), 5.00 ug/ml): 24.59% | % cytotoxicity ([5]; Colon (HT29), 10.00 ug/ml): 16.83% | IC50 ([5]; Lung (A549)): 11.41 µg/mL (≈ 4.75 µM) | % cytotoxicity ([5]; Lung (A549), 1.00 ug/ml): 15.66% | % cytotoxicity ([5]; Lung (A549), 2.50 ug/ml): 13.51% | % cytotoxicity ([5]; Lung (A549), 5.00 ug/ml): 41.14% | % cytotoxicity ([5]; Lung (A549), 10.00 ug/ml): 43.82% | IC50 ([5]; Ovarian (OVCAR3)): 19.75 µg/mL (≈ 8.23 µM) | % cytotoxicity ([5]; Ovarian (OVCAR3), 1.00 ug/ml): 6.42% | % cytotoxicity ([5]; Ovarian (OVCAR3), 2.50 ug/ml): 16.30% | % cytotoxicity ([5]; Ovarian (OVCAR3), 5.00 ug/ml): 16.41% | % cytotoxicity ([5]; Ovarian (OVCAR3), 10.00 ug/ml): 25.31% | IC50 ([5]; Prostate (DU145)): 6.56 µg/mL (≈ 2.73 µM) | % cytotoxicity ([5]; Prostate (DU145), 1.00 ug/ml): 26.92% | % cytotoxicity ([5]; Prostate (DU145), 2.50 ug/ml): 23.60% | % cytotoxicity ([5]; Prostate (DU145), 5.00 ug/ml): 45.22% | % cytotoxicity ([5]; Prostate (DU145), 10.00 ug/ml): 76.25% | IC50 ([5]; Stomach (AGS)): 18.58 µg/mL (≈ 7.74 µM) | % cytotoxicity ([5]; Stomach (AGS), 1.00 ug/ml): 4.00% | % cytotoxicity ([5]; Stomach (AGS), 2.50 ug/ml): 13.87% | % cytotoxicity ([5]; Stomach (AGS), 5.00 ug/ml): 26.88% | % cytotoxicity ([5]; Stomach (AGS), 10.00 ug/ml): 26.90% | concentration to achieve 50% RBC hemolysis (RBC): 8880 ng/mL
